Measured values published in article PMC8330742, “New benzothieno[2,3-c]pyridines as non-steroidal CYP17 inhibitors: design, synthesis, anticancer screening, apoptosis induction, and in silico ADME profile studies” (Journal of Enzyme Inhibition and Medicinal Chemistry, 2021).

Legend:
Test in all cases: NCI-60 SRB screen;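 on IC50: half-maximal inhibitory concentration read as cell viability unlike GI50 net growth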
[1] = tested on: EKVX; assay type: cell-based, human;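 on IC50: half-maximal inhibitory concentration read as cell viability unlike GI50 net growth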
[2] = tested on: TK-10; assay type: cell-based, human; conditions: TK-10;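 on IC50: half-maximal inhibitory concentration read as cell viability unlike GI50 net growth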
[3] = tested on: RXF 393; assay type: cell-based, human; conditions: RXF 393;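 on IC50: half-maximal inhibitory concentration read as cell viability unlike GI50 net growth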
[4] = tested on: A549/ATCC; assay type: cell-based, human
[5] = tested on: HCC-2998; assay type: cell-based, human; conditions: HCC-2998
[6] = tested on: HOP-62; assay type: cell-based, human; conditions: HOP-62
[7] = tested on: LOX IMVI; assay type: cell-based, human
[8] = tested on: SK-OV-3; assay type: cell-based, human; conditions: SK-OV-3
[9] = tested on: NCI-H226; assay type: cell-based, human; conditions: NCI-H226
[10] = tested on: HL-60(TB); assay type: cell-based, human
[11] = tested on: NCI/ADR-RES; assay type: cell-based, human
[12] = tested on: UO-31; assay type: cell-based, human; conditions: UO-31
[13] = tested on: 786-0; assay type: cell-based; conditions: 786-0
[14] = tested on: SR; assay type: cell-based
[15] = tested on: SK-MEL-28; assay type: cell-based; conditions: SK-MEL-28
[16] = tested on: IGROV1; assay type: cell-based, human; conditions: IGROV1
[17] = tested on: KM12; assay type: cell-based, human; conditions: KM12
[18] = tested on: HCT-15; assay type: cell-based, human; conditions: HCT-15
[19] = tested on: NCI-H460; assay type: cell-based, human; conditions: NCI-H460
[20] = tested on: NCI-H522; assay type: cell-based, human; conditions: NCI-H522
[21] = tested on: COLO 205; assay type: cell-based, human; conditions: COLO 205
[22] = tested on: CCRF-CEM; assay type: cell-based
[23] = Homo sapiens, single dose 10^−5 M, read-out: Growth inhibition (%)
[24] = Homo sapiens, IGROV-1, five dose

N#CC1C(=O)NC(c2ccccc2[N+](=O)[O-])c2sc3c(F)cccc3c21 (centres unmarked) [Compound 5c, 4-Cyano-8-fluoro-1-(2-nitrophenyl)-1,2-dihydro[1]benzothieno[2,3-c] pyridin-3(4H)-one] was tested, and the GI50 ([1]; Homo sapiens, five dose) was 2.69 µM, the IC50 ([1]; Homo sapiens, five dose) was 13.8 µM and the inhibition at 10 µM [1, 23] was 35.3%. It also gave a TGI ([1]; five dose) of 100 µM, a GI50 ([2]; Homo sapiens, five dose) of 17.7 µM and an IC50 ([2]; Homo sapiens, five dose) of 72.4 µM. For the same molecule, the inhibition at 10 µM [2, 23] was 58.9%, the TGI ([2]; five dose) was 100 µM and the GI50 ([3]; Homo sapiens, five dose) was 11.3 µM. The IC50 ([3]; Homo sapiens, five dose) was 37.2 µM, the inhibition at 10 µM [3, 23] was 30.1% and the TGI ([3]; five dose) was 100 µM. It also gave a GI50 ([4]; Homo sapiens, five dose) of 1.31 µM, an IC50 ([4]; Homo sapiens, five dose) of 2.34 µM and an inhibition at 10 µM [4, 23] of 52.8%. For the same molecule, the TGI ([4]; five dose) was 100 µM, the TGI ([5]; five dose) was 94.90 µM and the GI50 ([5]; Homo sapiens, five dose) was 17.4 µM. The IC50 ([5]; Homo sapiens, five dose) was 33.9 µM, the inhibition at 10 µM [5, 23] was 6.16% and the TGI ([6]; five dose) was 100 µM. For the same molecule, the GI50 ([6]; Homo sapiens, five dose) was 10 µM, the IC50 ([6]; Homo sapiens, five dose) was 22.9 µM and the inhibition at 10 µM [6, 23] was 66.3%. The GI50 ([7]; Homo sapiens, five dose) was 15.3 µM, the IC50 ([7]; Homo sapiens, five dose) was 25.1 µM and the inhibition at 10 µM [7, 23] was 8.64%. For the same molecule, the TGI ([7]; five dose) was 73.20 µM, the GI50 ([8]; Homo sapiens, five dose) was 12 µM and the IC50 ([8]; Homo sapiens, five dose) was 44.7 µM. For the same molecule, the inhibition at 10 µM [8, 23] was 28.2%, the TGI ([8]; five dose) was 100 µM and the GI50 ([9]; Homo sapiens, five dose) was 0.27 µM. It also gave an IC50 ([9]; Homo sapiens, five dose) of 0.871 µM, an inhibition at 10 µM [9, 23] of 31.2% and a TGI ([9]; five dose) of 100 µM. The TGI ([10]; HL-60(TB), five dose) was 100 µM, the GI50 ([10]; Homo sapiens, HL-60) was 14.2 µM and the IC50 ([10]; Homo sapiens, HL-60) was 28.2 µM. It also gave an inhibition at 10 µM ([10]; Homo sapiens, HL-60, read-out: Growth inhibition (%)) of 18.8%, a GI50 ([11]; Homo sapiens, five dose) of 8.21 µM and an IC50 ([11]; Homo sapiens, five dose) of 16.6 µM. The inhibition at 10 µM [11, 23] was 31.5%, the TGI ([11]; five dose) was 100 µM and the GI50 ([12]; Homo sapiens, five dose) was 10.7 µM. It also gave an IC50 ([12]; Homo sapiens, five dose) of 19.5 µM, an inhibition at 10 µM [12, 23] of 46.2% and a TGI ([12]; five dose) of 55.20 µM. The TGI ([13]; five dose) was 100 µM, the GI50 ([13]; Homo sapiens, five dose) was 37 µM and the IC50 ([13]; Homo sapiens, five dose) was 77.6 µM. For the same molecule, the LC50 ([13]; Homo sapiens, five dose) was > 100 µM, the inhibition at 10 µM [13, 23] was 10% and the GI50 ([14]; Homo sapiens, five dose) was 14.1 µM. The IC50 ([14]; Homo sapiens, five dose) was 25.1 µM, the LC50 ([14]; Homo sapiens, five dose) was > 100 µM and the inhibition at 10 µM [14, 23] was 33.2%. For the same molecule, the TGI ([14]; five dose) was 100 µM, the GI50 ([15]; Homo sapiens, five dose) was 31.2 µM and the IC50 ([15]; Homo sapiens, five dose) was 66.1 µM. The LC50 (50% lethal concentration) ([15]; Homo sapiens, five dose) was > 100 µM, the inhibition at 10 µM [15, 23] was -10.6% and the TGI ([15]; five dose) was 100 µM. It also gave a GI50 [16, 24] of 0.004 µM, an IC50 [16, 24] of 0.178 µM and an inhibition at 10 µM ([16]; Homo sapiens, IGROV-1, single dose 10^−5 M, read-out: Growth inhibition (%)) of 99.7%. For the same molecule, the TGI ([16]; five dose) was 100 µM, the GI50 ([17]; Homo sapiens, five dose) was 19.9 µM and the IC50 ([17]; Homo sapiens, five dose) was 32.4 µM. It also gave an inhibition at 10 µM [17, 23] of 8.58%, a TGI ([17]; five dose) of 100 µM and a TGI ([18]; five dose) of 100 µM. The GI50 ([18]; Homo sapiens, five dose) was 11.4 µM, the IC50 ([18]; Homo sapiens, five dose) was 16.6 µM and the inhibition at 10 µM [18, 23] was 12.3%. For the same molecule, the GI50 ([19]; Homo sapiens, five dose) was 0.29 µM, the IC50 ([19]; Homo sapiens, five dose) was 0.372 µM and the inhibition at 10 µM [19, 23] was 11.5%. For the same molecule, the TGI ([19]; five dose) was 100 µM, the GI50 ([20]; Homo sapiens, five dose) was 18.4 µM and the IC50 ([20]; Homo sapiens, five dose) was 41.7 µM. For the same molecule, the inhibition at 10 µM [20, 23] was 17.3%, the TGI ([20]; five dose) was 100 µM and the TGI ([21]; five dose) was 100 µM. For the same molecule, the GI50 ([21]; Homo sapiens, five dose) was 10.3 µM, the IC50 ([21]; Homo sapiens, five dose) was 17.8 µM and the inhibition at 10 µM [21, 23] was 29.9%. The GI50 ([22]; Homo sapiens, five dose) was 26.3 µM, the IC50 ([22]; Homo sapiens, five dose) was 37.2 µM and the LC50 ([22]; Homo sapiens, five dose) was > 100 µM. It also gave an inhibition at 10 µM [22, 23] of 13.2% and a TGI ([22]; five dose) of 100 µM.
